Experiments:
Conditions in all cases: incubation time: 72 h
HCC1937 [1] = experiment: normalised response (% of control), CellTiter-Glo; higher = more viable cells (100 = DMSO, 0 = benzethonium chloride kill control)
Procedure: (§1)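 DSRT, 72 h incubation, CellTox Green / CellTiter-Glo readout. Signal is normalised to DMSO and benzethonium chloride controls. Value is the normalised response at the highest dose.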

CAL-148 [2] = experiment: as above
Procedure: as §1

CAL-85-1 [3] = experiment: as above
Procedure: as §1

BT-474 [4] = experiment: as above
Procedure: as §1

CAL-51 [5] = experiment: as above
Procedure: as §1

MDA-MB-453 [6] = experiment: as above
Procedure: as §1

HCC1599 [7] = experiment: as above
Procedure: as §1

HCC1143 [8] = experiment: as above
Procedure: as §1

MDA-MB-468 [9] = experiment: as above
Procedure: as §1

SK-BR-3 = experiment: as above
Procedure: as §1

Hs578T [10] = experiment: as above
Procedure: as §1

MDA-MB-436 [11] = experiment: as above
Procedure: as §1

MDA-MB-231 [12] = experiment: as above
Procedure: as §1

HDQ-P1 [13] = experiment: as above
Procedure: as §1

CAL-120 [14] = experiment: as above
Procedure: as §1

DU-4475 [15] = experiment: as above
Procedure: as §1

MCF-10A [16] = experiment: as above
Procedure: as §1

BT-549 [17] = experiment: as above
Procedure: as §1

MFM-223 [18] = experiment: as above
Procedure: as §1

HCC1937 [19] = experiment: normalised response (% of control), CellTox Green; higher = less cell death (100 = DMSO, 0 = benzethonium chloride kill control)
Method in brief: (§2)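 Values are normalised signals, each belonging to one concentration of the series. Breast cancer cells (20 µl suspension) were seeded into 384-well plates with compound at 5 concentrations in 10-fold steps over a compound-specific 10,000-fold range and incubated 72 h. Readouts were CellTox Green fluorescence (485/520 nm), then CellTiter-Glo luminescence after 10 min at room temperature, with each plate set to 0.1 % DMSO as 100 and a positive kill control as 0.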

CAL-148 [20] = experiment: as above
Method in brief: as §2

CAL-85-1 [21] = experiment: as above
Method in brief: as §2

BT-474 [22] = experiment: as above
Method in brief: as §2

CAL-51 [23] = experiment: as above
Method in brief: as §2

MDA-MB-453 [24] = experiment: as above
Method in brief: as §2

HCC1599 [25] = experiment: as above
Method in brief: as §2

HCC1143 [26] = experiment: as above
Method in brief: as §2

MDA-MB-468 [27] = experiment: as above
Method in brief: as §2

Hs578T [28] = experiment: as above
Method in brief: as §2

MDA-MB-436 [29] = experiment: as above
Method in brief: as §2

MDA-MB-231 [30] = experiment: as above
Method in brief: as §2

HDQ-P1 [31] = experiment: as above
Method in brief: as §2

CAL-120 [32] = experiment: as above
Method in brief: as §2

DU-4475 [33] = experiment: as above
Method in brief: as §2

MCF-10A [34] = experiment: as above
Method in brief: as §2

BT-549 [35] = experiment: as above
Method in brief: as §2

MFM-223 [36] = experiment: as above
Method in brief: as §2

Row | SMILES | normalised response (HCC1937 [1]) | normalised response (CAL-148 [2]) | normalised response (CAL-85-1 [3]) | normalised response (BT-474 [4]) | normalised response (CAL-51 [5]) | normalised response (MDA-MB-453 [6]) | normalised response (HCC1599 [7]) | normalised response (HCC1143 [8]) | normalised response (MDA-MB-468 [9]) | normalised response (SK-BR-3) | normalised response (Hs578T [10]) | normalised response (MDA-MB-436 [11]) | normalised response (MDA-MB-231 [12]) | normalised response (HDQ-P1 [13]) | normalised response (CAL-120 [14]) | normalised response (DU-4475 [15]) | normalised response (MCF-10A [16]) | normalised response (BT-549 [17]) | normalised response (MFM-223 [18]) | normalised response (HCC1937 [19]) | normalised response (CAL-148 [20]) | normalised response (CAL-85-1 [21]) | normalised response (BT-474 [22]) | normalised response (CAL-51 [23]) | normalised response (MDA-MB-453 [24]) | normalised response (HCC1599 [25]) | normalised response (HCC1143 [26]) | normalised response (MDA-MB-468 [27]) | normalised response (Hs578T [28]) | normalised response (MDA-MB-436 [29]) | normalised response (MDA-MB-231 [30]) | normalised response (HDQ-P1 [31]) | normalised response (CAL-120 [32]) | normalised response (DU-4475 [33]) | normalised response (MCF-10A [34]) | normalised response (BT-549 [35]) | normalised response (MFM-223 [36])
1 | CC[C@H](CC#N)OC(=O)N[C@@H](C)c1cccc(NC(=O)Nc2ccc(-c3cnco3)c(OC)c2)c1 [AVN944] (10000 nM) | 42.2% | 41.4% | 38.4% | 48.8% | 19% | 62.3% | 33.4% | 31.5% | 30% | 37.1% | 35.4% | 38.1% | 47% | 42.3% | 50.6% | 15.7% | 58.9% | 27% | 49.7% | 96.6% | 67.1% | 101% | 96.4% | 78.9% | 107% | 97.1% | 105% | 124% | 48% | 97.9% | 110% | 94.6% | 102% | 89.2% | 85.2% | 88.5% | 100%
2 | CC(C)NC[C@@H](C(=O)N1CCN(c2ncnc3c2[C@H](C)C[C@H]3O)CC1)c1ccc(Cl)cc1 [GDC-0068] (10000 nM) | 61.5% | 3.54% | 66.1% | 86.6% | 36.8% | 29.6% | 82.5% | 55.8% | 43.4% | 44.3% | 65.1% | 77.5% | 89.5% | 58.3% | 70.3% | 75.2% | 58.9% | 55.3% | 23.3% | 97.5% | 29.8% | 100% | 95.7% | 77.1% | 90.9% | 95.9% | 110% | 46.7% | 119% | 96% | 124% | 67.2% | 104% | 96.6% | 101% | 76.8% | 74.7%
3 | CCc1cnn2c(NCc3ccc[n+]([O-])c3)cc(N3CCCC[C@H]3CCO)nc12 [Dinaciclib] (1000 nM) | 27.8% | 67.5% | 8.86% | 20.2% | 14.3% | 20.6% | 12.3% | 19.3% | 6.62% | 2.06% | 17.1% | 19.3% | 6.98% | 23% | 38.1% | 21.8% | 21.3% | 14% | 11.5% | 83.6% | 46.3% | 4.91% | 88.3% | 71.8% | 88.2% | 74.5% | 88.2% | 31.8% | 36.3% | 86.5% | -18.6% | 48.4% | 80.6% | 90.4% | 47.1% | 81.4% | 42.2%
4 | CC(C)n1nc(-c2ccc3oc(N)nc3c2)c2c(N)ncnc21 [INK128] (1000 nM) | 37% | 16.1% | 24.2% | 41.1% | 20.9% | 30% | 79.2% | 22.1% | 18.7% | 17.4% | 24.5% | 45.8% | 33.9% | 29.6% | 18.5% | 18.4% | 25.1% | 19.5% | 26.5% | 103% | 42% | 115% | 93.8% | 85.2% | 97.1% | 99.4% | 113% | 153% | -29.1% | 91.4% | 87.6% | 98.4% | 97.3% | 86.9% | 92% | 93.2% | 28.3%
5 | COc1cc2c(cc1-c1c(C)noc1C)ncc1[nH]c(=O)n([C@H](C)c3ccccn3)c12 [I-BET151] (10000 nM) | 72.2% | 71.7% | 30.7% | 59.3% | 59.5% | 21.8% | 67.6% | 59.3% | 50.6% | 53% | 35% | 75.6% | 62.5% | 67% | 64% | 53.3% | 54.5% | 38.5% | 49.9% | 66.3% | 72.4% | 48.9% | 95.2% | 47.1% | 98.5% | 93.5% | 104% | -18.1% | 112% | 35.5% | 45.2% | 72.8% | 76.1% | 81.2% | 28.1% | 81.8% | 104%
6 | COc1cc(Nc2ncc(F)c(Nc3ccc4c(n3)N(COP(=O)(O)O)C(=O)C(C)(C)O4)n2)cc(OC)c1OC [Fostamatinib] (2500 nM) | 54% | 106% | 30.5% | 27% | 50.8% | 64.8% | 66.8% | 63.2% | 64.4% | 60.3% | 15.1% | 67.5% | 20.3% | 26.1% | 43.7% | 65.1% | 15.1% | 39.7% | 37.8% | 74.1% | 67.6% | -13.8% | 77.7% | 31.6% | 89.1% | 92.7% | 100% | 37.4% | 19.2% | 86.6% | -11.9% | 73.6% | 67.8% | 90.3% | 69% | 64.8% | 87.5%
7 | CCc1c(C(=O)C(N)=O)c2c(OCC(=O)O)cccc2n1Cc1ccccc1 [Varespladib] (10000 nM) | 96.7% | 109% | 104% | 99.2% | 97.3% | 102% | 95.1% | 101% | 97.7% | 103% | 99.3% | 101% | 95.7% | 98.8% | 115% | 91.3% | 100% | 99.8% | 105% | 72.7% | 98.3% | 93.6% | 99.6% | 108% | 101% | 102% | 103% | 109% | 121% | 105% | 102% | 97.1% | 104% | 97.5% | 110% | 103% | 90%
8 | Cn1cc(C[C@@H](N)C(=O)O)c2ccccc21 [1-methyl-D-tryptophan] (5000 nM) | 99.5% | 85.7% | 98.3% | 96.4% | 107% | 91.4% | 87.9% | 102% | 96.7% | 93.2% | 97% | 95.1% | 95.7% | 111% | 101% | 92.9% | 97.4% | 97.8% | 92.5% | 106% | 105% | 106% | 99.7% | 102% | 99.9% | 98% | 124% | 53% | 101% | 93.1% | 99.5% | 60.4% | 99.4% | 96.5% | 90.3% | 90% | 103%
9 | N[C@@H](Cc1ccc(N(CCCl)CCCl)cc1)C(=O)O [Melphalan] (12500 nM) | 3.24% | 1.23% | 0.13% | 2.03% | 0.13% | 0.28% | 0.01% | 0.96% | 0.28% | -0.14% | -0.1% | 0.88% | 0.1% | 0.84% | 3.52% | 0.09% | 0.08% | 0.03% | 0.21% | -39.4% | -8.15% | -78.3% | -70.3% | -37.5% | -17.4% | 18.8% | -23.3% | -317% | -177% | -19.3% | -127% | -14.5% | -41.5% | -7.06% | -119% | -143% | -19.4%

— the supplement of paper PMC4862054
